Laboratory results taken from US6358885B1, “Substituted phenylheterocyclic herbicides” (Mississippi State University, priority 1992, dated 2002).

Experiments:
chickweed = experiment: Test B preemergence/postemergence greenhouse plant response rating 0 to 10; assay type: in vivo, Stellaria media; settings: 0 to 10 scale
Outline: (§1)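 Planted seeds are treated preemergence with compound dissolved in a non-phytotoxic solvent, while postemergence applications go onto plants of two to eighteen cm. Plants stay in the greenhouse twelve to sixteen days and are then rated visually relative to controls.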

corn [1] = experiment: Test C preemergence/postemergence greenhouse plant response rating 0 to 100; assay type: in vivo, Zea mays; settings: POSTEMERGENCE; for Plant response rating, Corn: 0 to 100 scale
Outline: (§2)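 Compounds in non-phytotoxic solvent went onto sandy loam before emergence (seeded one day earlier) or onto plants at the one-to-four leaf stage. Duck salad was treated via flood water (~2.5 cm, maintained) over silt loam.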

bedstraw [2] = experiment: as above; assay type: in vivo, Galium aparine; settings: POSTEMERGENCE; for Plant response rating, Bedstraw: 0 to 100 scale
Outline: as §2

downy brome = experiment: as above; assay type: in vivo, Bromus tectorum; settings: POSTEMERGENCE; for Plant response rating Downy Brome: 0 to 100 scale
Outline: as §2

bedstraw [3] = experiment: Test B preemergence/postemergence greenhouse plant response rating 0 to 10; assay type: in vivo, Galium aparine; settings: 0 to 10 scale
Outline: as §1

wild oat = experiment: Test C preemergence/postemergence greenhouse plant response rating 0 to 100; assay type: in vivo, Avena fatua; settings: POSTEMERGENCE; for Plant response rating, Wild oat: 0 to 100 scale
Outline: as §2

duck salad = experiment: Test C flood test plant response rating 0 to 100; assay type: in vivo, Heteranthera limosa; settings: for Plant response rating Duck salad: flood test species listed under POSTEMERGENCE, 0 to 100 scale
Outline: as §2

cotton = experiment: Test C preemergence/postemergence greenhouse plant response rating 0 to 100; assay type: in vivo, Gossypium hirsutum; settings: POSTEMERGENCE; for Plant response rating, Cotton: 0 to 100 scale
Outline: as §2

wheat = experiment: as above; assay type: in vivo, Triticum aestivum; settings: POSTEMERGENCE; for Plant response rating, Wheat: 0 to 100 scale
Outline: as §2

sorghum = experiment: as above; assay type: in vivo, Sorghum bicolor; settings: POSTEMERGENCE; for Plant response rating, Sorghum: 0 to 100 scale
Outline: as §2

sugar beet = experiment: Test B preemergence/postemergence greenhouse plant response rating 0 to 10; assay type: in vivo, Beta vulgaris; settings: 0 to 10 scale
Outline: as §1

corn [4] = experiment: as above; assay type: in vivo, Zea mays; settings: 0 to 10 scale
Outline: as §1

barnyardgrass = experiment: Test C flood test plant response rating 0 to 100; assay type: in vivo, Echinochloa crus-galli; settings: for Plant response rating, Barnyardgrass: flood test species listed under POSTEMERGENCE, 0 to 100 scale
Outline: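 Compounds in non-phytotoxic solvent applied preemergence to sandy loam one day after planting, postemergence at the 1–4 leaf stage, or to ~2.5 cm floodwater over silt loam.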

morningglory = experiment: Test C preemergence/postemergence greenhouse plant response rating 0 to 100; assay type: in vivo, Ipomoea hederacea; settings: POSTEMERGENCE; for Plant response rating, Morningglory: 0 to 100 scale
Outline: as §2

wild buckwheat = experiment: Test B preemergence/postemergence greenhouse plant response rating 0 to 10; assay type: in vivo, Polygonum convolvulus; settings: 0 to 10 scale
Outline: as §1

giant foxtail = experiment: Test C preemergence/postemergence greenhouse plant response rating 0 to 100; assay type: in vivo, Setaria faberii; settings: POSTEMERGENCE; for Plant response rating, Giant foxtail: 0 to 100 scale
Outline: as §2

velvetleaf = experiment: as above; assay type: in vivo, Abutilon theophrasti; settings: POSTEMERGENCE; for Plant response rating, Velvetleaf: 0 to 100 scale
Outline: as §2

[5] = POSTEMERGENCE section, flood test, Rate 4 g/ha
[6] = Rate 16 g/ha, under POSTEMERGENCE head (flood test species)

Q: Which “Plant response rating, Chickweed” value (chickweed; POSTEMERGENCE, Rate 10 g/ha) does the source give for C#CC(C)N1C(=O)COc2cc(F)c(-c3nn4c(c3Cl)CCCC4)cc21 (stereo not drawn) [Compound 50] here?
A: 9

Q: What about the “Plant response rating, Chickweed” value (chickweed; POSTEMERGENCE, Rate 50 g/ha) of the same compound?
A: 10

Q: And the “Plant response rating, Chickweed” value (chickweed; PREEMERGENCE, Rate 10 g/ha)?
A: 0

Q: What about the “Plant response rating, Chickweed” value (chickweed; PREEMERGENCE, Rate 50 g/ha) of the same compound?
A: 10

Q: What about the “Plant response rating, Corn” value (corn [1]; 62 g/ha) of the same compound?
A: 50

Q: What about the “Plant response rating, Corn” value (corn [1]; 250 g/ha) of the same compound?
A: 60

Q: What about the “Plant response rating (0 to 100), Corn” value (corn [1]; Rate 1 g/ha) of the same compound?
A: 20

Q: And the “Plant response rating (0 to 100), Corn” value (corn [1]; Rate 4 g/ha)?
A: 30

Q: And the “Plant response rating (0 to 100), Corn” value (corn [1]; Rate 16 g/ha)?
A: 40

Q: And the “Plant response rating, Bedstraw” value (bedstraw [2]; 62 g/ha)?
A: 100

Q: And the “Plant response rating, Bedstraw” value (bedstraw [2]; 250 g/ha)?
A: 100

Q: What about the “Plant response rating (0 to 100), Bedstraw” value (bedstraw [2]; Rate 1 g/ha) of the same compound?
A: 10

Q: And the “Plant response rating (0 to 100), Bedstraw” value (bedstraw [2]; Rate 4 g/ha)?
A: 20

Q: And the “Plant response rating (0 to 100), Bedstraw” value (bedstraw [2]; Rate 16 g/ha)?
A: 60

Q: And the “Plant response rating Downy Brome” value (downy brome; 62 g/ha)?
A: 50

Q: What about the “Plant response rating Downy Brome” value (downy brome; 250 g/ha) of the same compound?
A: 60

Q: And the “Plant response rating (0 to 100), Downy Brome” value (downy brome; Rate 1 g/ha)?
A: 0

Q: What about the “Plant response rating (0 to 100), Downy Brome” value (downy brome; Rate 4 g/ha) of the same compound?
A: 30

Q: What about the “Plant response rating (0 to 100), Downy Brome” value (downy brome; Rate 16 g/ha) of the same compound?
A: 40

Q: What about the “Plant response rating, Bedstraw” value (bedstraw [3]; POSTEMERGENCE, Rate 10 g/ha) of the same compound?
A: 10

Q: And the “Plant response rating, Bedstraw” value (bedstraw [3]; POSTEMERGENCE, Rate 50 g/ha)?
A: 10

Q: And the “Plant response rating, Bedstraw” value (bedstraw [3]; PREEMERGENCE, Rate 10 g/ha)?
A: 3

Q: And the “Plant response rating, Bedstraw” value (bedstraw [3]; PREEMERGENCE, Rate 50 g/ha)?
A: 10

Q: What about the “Plant response rating, Wild oat” value (wild oat; 62 g/ha) of the same compound?
A: 30

Q: And the “Plant response rating, Wild oat” value (wild oat; 250 g/ha)?
A: 50

Q: What about the “Plant response rating (0 to 100), Wild oat” value (wild oat; Rate 1 g/ha) of the same compound?
A: 10

Q: And the “Plant response rating (0 to 100), Wild oat” value (wild oat; Rate 4 g/ha)?
A: 20

Q: What about the “Plant response rating (0 to 100), Wild oat” value (wild oat; Rate 16 g/ha) of the same compound?
A: 20

Q: What about the “Plant response rating (0 to 100), Duck salad” value (duck salad; [5]) of the same compound?
A: 0

Q: What about the “Plant response rating (0 to 100), Duck salad” value (duck salad; [6]) of the same compound?
A: 0

Q: And the “Plant response rating Duck salad” value (duck salad; 62 g/ha)?
A: 0

Q: What about the “Plant response rating Duck salad” value (duck salad; 250 g/ha) of the same compound?
A: 90

Q: What about the “Plant response rating, Cotton” value (cotton; 62 g/ha) of the same compound?
A: 100

Q: And the “Plant response rating, Cotton” value (cotton; 250 g/ha)?
A: 100

Q: And the “Plant response rating (0 to 100), Cotton” value (cotton; Rate 1 g/ha)?
A: 70

Q: And the “Plant response rating (0 to 100), Cotton” value (cotton; Rate 4 g/ha)?
A: 100

Q: And the “Plant response rating (0 to 100), Cotton” value (cotton; Rate 16 g/ha)?
A: 100

Q: And the “Plant response rating, Wheat” value (wheat; 62 g/ha)?
A: 50

Q: What about the “Plant response rating, Wheat” value (wheat; 250 g/ha) of the same compound?
A: 60

Q: What about the “Plant response rating (0 to 100), Wheat” value (wheat; Rate 1 g/ha) of the same compound?
A: 0

Q: And the “Plant response rating (0 to 100), Wheat” value (wheat; Rate 4 g/ha)?
A: 20

Q: And the “Plant response rating (0 to 100), Wheat” value (wheat; Rate 16 g/ha)?
A: 30

Q: What about the “Plant response rating, Sorghum” value (sorghum; 62 g/ha) of the same compound?
A: 50

Q: And the “Plant response rating, Sorghum” value (sorghum; 250 g/ha)?
A: 50

Q: And the “Plant response rating (0 to 100), Sorghum” value (sorghum; Rate 1 g/ha)?
A: 30

Q: What about the “Plant response rating (0 to 100), Sorghum” value (sorghum; Rate 4 g/ha) of the same compound?
A: 50

Q: What about the “Plant response rating (0 to 100), Sorghum” value (sorghum; Rate 16 g/ha) of the same compound?
A: 50

Q: What about the “Plant response rating, Sugar beet” value (sugar beet; POSTEMERGENCE, Rate 10 g/ha) of the same compound?
A: 10

Q: What about the “Plant response rating, Sugar beet” value (sugar beet; POSTEMERGENCE, Rate 50 g/ha) of the same compound?
A: 10

Q: And the “Plant response rating, Sugar beet” value (sugar beet; PREEMERGENCE, Rate 50 g/ha)?
A: 10

Q: And the “Plant response rating, Corn” value (corn [4]; POSTEMERGENCE, Rate 10 g/ha)?
A: 3

Q: And the “Plant response rating, Corn” value (corn [4]; POSTEMERGENCE, Rate 50 g/ha)?
A: 4

Q: What about the “Plant response rating, Corn” value (corn [4]; PREEMERGENCE, Rate 50 g/ha) of the same compound?
A: 0

Q: What about the “Plant response rating (0 to 100), Barnyardgrass” value (barnyardgrass; [5]) of the same compound?
A: 60

Q: And the “Plant response rating (0 to 100), Barnyardgrass” value (barnyardgrass; [6])?
A: 70

Q: And the “Plant response rating, Barnyardgrass” value (barnyardgrass; 62 g/ha)?
A: 95

Q: And the “Plant response rating, Barnyardgrass” value (barnyardgrass; 250 g/ha)?
A: 100

Q: What about the “Plant response rating, Morningglory” value (morningglory; 62 g/ha) of the same compound?
A: 100

Q: And the “Plant response rating, Morningglory” value (morningglory; 250 g/ha)?
A: 100

Q: And the “Plant response rating (0 to 100), Morningglory” value (morningglory; Rate 1 g/ha)?
A: 50

Q: What about the “Plant response rating (0 to 100), Morningglory” value (morningglory; Rate 4 g/ha) of the same compound?
A: 70

Q: And the “Plant response rating (0 to 100), Morningglory” value (morningglory; Rate 16 g/ha)?
A: 100

Q: And the “Plant response rating, Wild buckwheat” value (wild buckwheat; POSTEMERGENCE, Rate 10 g/ha)?
A: 10

Q: What about the “Plant response rating, Wild buckwheat” value (wild buckwheat; POSTEMERGENCE, Rate 50 g/ha) of the same compound?
A: 10

Q: What about the “Plant response rating, Wild buckwheat” value (wild buckwheat; PREEMERGENCE, Rate 50 g/ha) of the same compound?
A: 7

Q: What about the “Plant response rating, Giant foxtail” value (giant foxtail; 62 g/ha) of the same compound?
A: 50

Q: And the “Plant response rating, Giant foxtail” value (giant foxtail; 250 g/ha)?
A: 50

Q: And the “Plant response rating (0 to 100), Giant foxtail” value (giant foxtail; Rate 1 g/ha)?
A: 20

Q: And the “Plant response rating (0 to 100), Giant foxtail” value (giant foxtail; Rate 4 g/ha)?
A: 30

Q: And the “Plant response rating (0 to 100), Giant foxtail” value (giant foxtail; Rate 16 g/ha)?
A: 50

Q: And the “Plant response rating, Velvetleaf” value (velvetleaf; 62 g/ha)?
A: 100

Q: And the “Plant response rating, Velvetleaf” value (velvetleaf; 250 g/ha)?
A: 100

Q: What about the “Plant response rating (0 to 100), Velvetleaf” value (velvetleaf; Rate 1 g/ha) of the same compound?
A: 70

Q: And the “Plant response rating (0 to 100), Velvetleaf” value (velvetleaf; Rate 4 g/ha)?
A: 90

Q: And the “Plant response rating (0 to 100), Velvetleaf” value (velvetleaf; Rate 16 g/ha)?
A: 100
